Source: ChEMBL document CHEMBL1177773, “Design, synthesis and anticancer activity of piperazine hydroxamates and their histone deacetylase (HDAC) inhibitory activity” (Bioorg Med Chem Lett, 2010)

Assays:
U-251 = assay: Cytotoxicity against human U251 cells after 48 hrs by MTT assay; type: functional; details: for CC50: read-out: LC50 (the source's name)
NCI-H460 = assay: Cytotoxicity against human NCI-H460 cells after 48 hrs by MTT assay; type: functional; details: for CC50: read-out: LC50 (the source's name)
HCT-116 = assay: Cytotoxicity against human HCT116 cells after 48 hrs by MTT assay; type: functional; details: for CC50: read-out: LC50 (the source's name)
HL-60 = assay: Growth inhibition of human HL60 cells after 48 hrs; type: functional, cell-based; details: HL-60, 48 h
Histone deacetylase 8 = molecular target: T1, Histone deacetylase 8 (Homo sapiens, UniProt Q9BY41); assay: Inhibition of human HDAC8
T1 sequence (Q9BY41 whole entry): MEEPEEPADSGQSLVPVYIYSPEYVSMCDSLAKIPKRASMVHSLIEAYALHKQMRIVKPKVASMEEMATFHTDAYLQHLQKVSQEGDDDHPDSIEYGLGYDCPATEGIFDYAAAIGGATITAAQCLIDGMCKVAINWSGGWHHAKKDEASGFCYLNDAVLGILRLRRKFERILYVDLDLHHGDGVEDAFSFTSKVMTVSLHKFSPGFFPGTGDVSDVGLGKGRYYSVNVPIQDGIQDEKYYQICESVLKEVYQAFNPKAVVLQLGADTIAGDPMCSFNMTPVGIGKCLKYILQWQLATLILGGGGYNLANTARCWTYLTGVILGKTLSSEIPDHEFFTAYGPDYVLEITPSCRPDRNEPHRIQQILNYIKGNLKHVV

Row | SMILES | GI50 (U-251; Homo sapiens, U-251, 48 h) [µM] | CC50 (U-251; Homo sapiens, U-251, 48 h) [µM] | GI50 (NCI-H460; Homo sapiens, NCI-H460, 48 h) [µM] | CC50 (NCI-H460; Homo sapiens, NCI-H460, 48 h) [µM] | GI50 (HCT-116; Homo sapiens, HCT-116, 48 h) [µM] | CC50 (HCT-116; Homo sapiens, HCT-116, 48 h) [µM] | GI50 (U-251) [µM] | CC50 (U-251) [µM] | GI50 (NCI-H460) [µM] | CC50 (NCI-H460) [µM] | CC50 (HCT-116) [µM] | IC50 (HL-60) [µM] | IC50 (Histone deacetylase 8) [µM]
1 | O=C(NO)N1CCN(C(=S)N/N=C/c2c3ccccc3cc3ccccc23)CC1 | 65 | > 100 | 9.5 | > 100 | 70 | > 100 |  |  |  |  |  |  | 
2 | O=C(CCCCCCC(=O)Nc1ccccc1)NO [VORINOSTAT] |  |  |  |  |  |  | 6.5 | > 100 | 8 | > 100 | > 100 |  | 
3 | O=C(NO)N1CCN(C(=S)N/N=C/c2ccccc2O)CC1 | 14.2 | > 100 | 5.15 | > 100 | 8.6 | > 100 |  |  |  |  |  | 0.6 | 33.7
4 | O=C(NO)N1CCN(C(=S)N/N=C/c2ccc(Cl)cc2)CC1 | 8.5 | > 100 | 16 | > 100 | 11.6 | > 100 |  |  |  |  |  |  | 43.2
5 | Cc1ccc(/C=N/NC(=S)N2CCN(C(=O)NO)CC2)cc1 | 27.5 | > 100 | 51 | > 100 | 31 | > 100 |  |  |  |  |  |  | 
6 | O=C1Nc2ccccc2/C1=N/NC(=S)N1CCN(C(=O)NO)CC1 | > 100 | > 100 | > 100 | > 100 | > 100 | > 100 |  |  |  |  |  |  | 
7 | O=C(NO)N1CCN(C(=S)N/N=C/c2ccccc2Cl)CC1 | 13.5 | > 100 | 30 | > 100 | 11.5 | > 100 |  |  |  |  |  |  | 
